Biological target: T1, DYRK1A (Homo sapiens (Human), UniProt Q13627)
Experiment: DYRK1A Inhibition Assay
Type: biochemical
Details: Compounds of Formula (I); DYRK1A 1 nM, ATP 20 μM, Ser/Thr 18 peptide 2 μM, 90 minutes; read-out: DYRK1 IC50
Description: DYRK1A—Invitrogen #PV4105
• Ser/Thr 18 peptide—Invitrogen #PR8227U • Phos-Ser/Thr 18 peptide—Invitrogen #PR8229U • Assay plate—PerkinElmer #6007279 • ATP—Sigma #A7699-5G • Development reagent A—Invitrogen #PR5194B • Development buffer—Invitrogen #PR4876B Compound preparation • 1. Test compounds were diluted to 1 mM in DMSO • 2. Stock was further diluted 3-fold using Echo platform • 3. 100 nL of DMSO into Columns 1 and 24 and 100 nL of compounds dilutions to Columns 2-23 in a plate.
• 1. Add 5 μL enzyme & substrate mixture to each well in Column 2-23 and A24-H24 wells of the 384-well assay plate; • 2. Add 5 μL 0% Phosphorylation control to A1-H1 and I24-P24 wells of the assay plate; • 3. Add 5 μL 100% Phosphorylation control to I1-P1 wells of the assay plate; • 4. Spin the assay plate (1000 rpm, 1 minute @23° C.); • 5. Incubate enzyme with compounds for 15 minutes at 23° C.; • 6. Add 5 μL ATP solution to each well of the assay plate; • 7. Spin the plate (1000 rpm, 1 minute @23° C.); • 8. Incubate the assay plate for 90 minutes at 23° C.; • 9. Add 10 μL Development reagent A to each well of the assay plate; • 10. Centrifuge the plate at 1000 rpm about 15 seconds and seal a film over assay plate. Incubate the assay plate for 30 minutes at 23° C. • 11. Read assay plates on Envision (see Tables A-D).
Final Compound Concentrations
• Assay buffer: 50 mM Hepes pH7.5, 10 mM MgCl2, 1 mM EDTA, 0.01% Brij-35 • DYRK1A: 1 nM • ATP: 20 μM • Ser/Thr 18 peptide: 2 μM • Reaction time: 90 minutes

| Compound | IC50 [µM] |
| --- | --- |
| Cn1cc(-c2ccc3cnc4c(c3c2)c([C@H]2CC[C@@H](N(C)C)CC2)cn4C)cn1 [Compound 49, (1s,4s)-N,N-dimethyl-4-(3-methyl-8-(1-methyl-1H-pyrazol-4-yl)-3H-pyrrolo[2,3-c]isoquinolin-1-yl)cyclohexan-1-amine] | 0.01 to 0.1 |
| Cn1cc(-c2ccc3cnc4c(c3c2)c([C@H]2CC[C@H](N(C)C)CC2)cn4C)cn1 [Compound 50, (1r,4r)-N,N-dimethyl-4-(3-methyl-8-(1-methyl-1H-pyrazol-4-yl)-3H-pyrrolo[2,3-c]isoquinolin-1-yl)cyclohexan-1-amine] | 0.01 to 0.1 |
| Cc1c(-c2cccc(C(=O)O)c2)[nH]c2ncc3ccncc3c12 [Compound 52, 3-(9-methyl-7H-pyrrolo[2,3-c][2,6]naphthyridin-8-yl)benzoic acid] | 0.1 to 1 |
| Cc1c(-c2cccnc2)[nH]c2ncc3cnccc3c12 [Compound 53] | 0.1 to 1 |
| Cc1c(C2CCN(CCF)CC2)[nH]c2ncc3ccc(-c4cnn(C)c4)cc3c12 [Compound 54, 2-(1-(2-fluoroethyl)piperidin-4-yl)-1-methyl-8-(1-methyl-1H-pyrazol-4-yl)-3H-pyrrolo[2,3-c]isoquinoline] | ≤ 0.01 |
| Cc1c(C2CCN(CC(F)F)CC2)[nH]c2ncc3ccc(-c4cnn(C)c4)cc3c12 [Compound 55, 2-(1-(2,2-difluoroethyl)piperidin-4-yl)-1-methyl-8-(1-methyl-1H-pyrazol-4-yl)-3H-pyrrolo[2,3-c]isoquinoline] | ≤ 0.01 |
| Cc1c(C2CCN(CC(C)(C)O)CC2)[nH]c2ncc3ccc(-c4cnn(C)c4)cc3c12 [Compound 56, 2-methyl-1-(4-(1-methyl-8-(1-methyl-1H-pyrazol-4-yl)-3H-pyrrolo[2,3-c]isoquinolin-2-yl)piperidin-1-yl)propan-2-ol] | ≤ 0.01 |
| CN1CCC(c2c(C(F)(F)F)[nH]c3ncc4cc(-c5cnco5)ccc4c23)CC1 [Compound 57, 5-(1-(1-methylpiperidin-4-yl)-2-(trifluoromethyl)-3H-pyrrolo[2,3-c]isoquinolin-7-yl)oxazole] | > 1 |
| Cn1cc(-c2ccc3cnc4ncn(C5CCC5)c4c3c2)cn1 [Compound 58, 1-cyclobutyl-8-(1-methyl-1H-pyrazol-4-yl)-1H-imidazo[4,5-c]isoquinoline] | 0.01 to 0.1 |
| C(#CC1CCOCC1)c1ncc(-c2ccc3cnc4[nH]ccc4c3c2)s1 [Compound 59] | ≤ 0.01 |
| Cn1ccc2c3cc(-c4cnc(C#CC5CCOCC5)s4)ccc3cnc21 [Compound 60] | 0.01 to 0.1 |
| CN1CCC(C#Cc2ncc(-c3ccc4cnc5[nH]ccc5c4c3)s2)CC1 [Compound 61, 2-((1-methylpiperidin-4-yl)ethynyl)-5-(3H-pyrrolo[2,3-c]isoquinolin-8-yl)thiazole] | ≤ 0.01 |
| CN1CCC(C#Cc2ncc(-c3ccc4cnc5c(ccn5C)c4c3)s2)CC1 [Compound 62, 5-(3-methyl-3H-pyrrolo[2,3-c]isoquinolin-8-yl)-2-((1-methylpiperidin-4-yl)ethynyl)thiazole] | 0.01 to 0.1 |
| Cc1c[nH]c2ncc3ccc(-c4cnc(C#CC5CCOCC5)s4)cc3c12 [Compound 63] | ≤ 0.01 |
| Cc1cc2c(ncc3ccc(-c4cnc(C#CC5CCOCC5)s4)cc32)[nH]1 [Compound 64] | 0.01 to 0.1 |
| O[C@H]1CCN(c2cncc(-c3ccc4cnc5[nH]cc(C6CCC6)c5c4c3)c2)C1 [Compound 66, (S)-1-(5-(1-cyclobutyl-3H-pyrrolo[2,3-c]isoquinolin-8-yl)pyridin-3-yl)pyrrolidin-3-ol] | ≤ 0.01 |
| O[C@@H]1CCN(c2cncc(-c3ccc4cnc5[nH]cc(C6CCC6)c5c4c3)c2)C1 [Compound 67, (R)-1-(5-(1-cyclobutyl-3H-pyrrolo[2,3-c]isoquinolin-8-yl)pyridin-3-yl)pyrrolidin-3-ol] | ≤ 0.01 |
| O[C@H]1CCN(c2cncc(-c3ccc4cnc5[nH]c(C6CCC6)cc5c4c3)c2)C1 [Compound 69] | 0.01 to 0.1 |
| O[C@@H]1CCN(c2cncc(-c3ccc4cnc5[nH]c(C6CCC6)cc5c4c3)c2)C1 [Compound 70] | 0.01 to 0.1 |
| O=C(O)c1ccc2c(cnc3c2cnn3CC2CCOCC2)c1 [Compound 71] | 0.1 to 1 |

| Compound | IC50 [µM] |
| --- | --- |
| Cn1cc(-c2ccc3cnc4cc(C5CCOCC5)sc4c3c2)cn1 [Compound 72] | ≤ 0.01 |
| c1ncc(-c2ccc3cnc4cc(C5CCOCC5)sc4c3c2)o1 [Compound 73, 5-(2-(tetrahydro-2H-pyran-4-yl)thieno[3,2-c]isoquinolin-8-yl)oxazole] | 0.01 to 0.1 |
| Cn1cc(-c2ccc3cnc4c(c3c2)CCO4)cn1 [Compound 74, 8-(1-methyl-1H-pyrazol-4-yl)-1,2-dihydrofuro[2,3-c]isoquinoline] | 0.01 to 0.1 |
| c1ncc(-c2ccc3cnc4c(c3c2)CCO4)s1 [Compound 75, 8-(thiazol-5-yl)-1,2-dihydrofuro[2,3-c]isoquinoline] | 0.01 to 0.1 |
| Cn1cc(-c2ccc3cnc4occc4c3c2)cn1 [Compound 76, 8-(1-methyl-1H-pyrazol-4-yl)furo[2,3-c]isoquinoline] | 0.01 to 0.1 |
| c1nc2c(ncc3ccc(-c4cncs4)cc32)[nH]1 [Compound 77] | ≤ 0.01 |
| c1ncc(-c2ccc3cnc4cc(C5CCOCC5)sc4c3c2)s1 [Compound 78, 2-(tetrahydro-2H-pyran-4-yl)-8-(thiazol-5-yl)thieno[3,2-c]isoquinoline] | ≤ 0.01 |
| Cc1ncc(-c2ccc3cnc4cc(C5CCOCC5)sc4c3c2)s1 [Compound 79, 8-(2-methylthiazol-5-yl)-2-(tetrahydro-2H-pyran-4-yl)thieno[3,2-c]isoquinoline] | 0.01 to 0.1 |
| Cc1nc2ncc3ccc(-c4cnn(C)c4)cc3c2s1 [Compound 80] | 0.1 to 1 |
| Cn1cc(-c2ccc3cnc4nc(C5CCOCC5)sc4c3c2)cn1 [Compound 81, 8-(1-methyl-1H-pyrazol-4-yl)-2-(tetrahydro-2H-pyran-4-yl)thiazolo[4,5-c]isoquinoline] | 0.1 to 1 |
| Cn1cc(-c2ccc3cnc4nc(C5CCOCC5)oc4c3c2)cn1 [Compound 82, 8-(1-methyl-1H-pyrazol-4-yl)-2-(tetrahydro-2H-pyran-4-yl)oxazolo[4,5-c]isoquinoline] | 0.1 to 1 |
| O=C1Cc2c(ncc3cc(-c4cnco4)ccc23)N1 [Compound 83] | 0.1 to 1 |
| Cn1cc(-c2ccc3c4c(ncc3c2)NC(=O)C4)cn1 [Compound 84, 7-(1-methyl-1H-pyrazol-4-yl)-1,3-dihydro-2H-pyrrolo[2,3-c]isoquinolin-2-one] | > 1 |
| Cn1cc(-c2ccc3cnc4c(c3c2)CC(=O)N4)cn1 [Compound 85, 8-(1-methyl-1H-pyrazol-4-yl)-1,3-dihydro-2H-pyrrolo[2,3-c]isoquinolin-2-one] | 0.01 to 0.1 |
| c1ncc(-c2ccc3cnc4sc(C5CCN(CC6CC6)CC5)nc4c3c2)s1 [Compound 86, 2-(1-(cyclopropylmethyl)piperidin-4-yl)-8-(thiazol-5-yl)thiazolo[5,4-c]isoquinoline] | 0.01 to 0.1 |
| CC(C)CN1CCC(c2cc3c(ncc4ccc(-c5cncn5C)cc43)[nH]2)CC1 [Compound 87] | 0.01 to 0.1 |
| CC(C)CN1CCC(c2cc3c(ncc4ccc(-c5cncs5)cc43)[nH]2)CC1 [Compound 88, 5-(2-(1-isobutylpiperidin-4-yl)-3H-pyrrolo[2,3-c]isoquinolin-8-yl)thiazole] | ≤ 0.01 |
| CC(C)CN1CCC(c2cc3c(ncc4ccc(-c5cn[nH]c5)cc43)[nH]2)CC1 [Compound 89, 2-(1-isobutylpiperidin-4-yl)-8-(1H-pyrazol-4-yl)-3H-pyrrolo[2,3-c]isoquinoline] | 0.01 to 0.1 |
| Cc1[nH]c2ncc3ccncc3c2c1-c1cccc(C(=O)O)c1 [Compound 95, 3-(8-methyl-7H-pyrrolo[2,3-c][2,6]naphthyridin-9-yl)benzoic acid] | 0.1 to 1 |

Biological target: T1, DYRK1A
Experiment: not given
Details: cited from earlier work

| Compound | mode of DYRK1A inhibition |
| --- | --- |
| O=C(O[C@@H]1Cc2c(O)cc(O)cc2O[C@@H]1c1cc(O)c(O)c(O)c1)c1cc(O)c(O)c(O)c1 [EGCG, Epigallocatechin gallate] | non-ATP competitive DYRK1A inhibitor |
